Test results published in PubChem BioAssay AID2060606 (Molecular Pharmacology Branch, DTP, NCI, 2025).

Test system: 922993-354-T-J3-PDC complex spheroids, viability, % test/control
Experiment: Anticancer human tumor 922993-354-T-J3-PDC patient-derived endometrial carcinoma cell line growth inhibition [CLK]
Conditions: for IC50: curve of first compound; for viability, T/C: stronger effect = lower value
Source text: A high-throughput screen of multi-cell type tumor spheroids was designed to identify active combinations of […] and targeted small molecules. Complex spheroids include a stromal component modeled by human endothelial cells (HUVEC) and fibroblasts modeled by human mesenchymal stem cells (MSCs). The concentration ranges selected for each drug and investigational agent were based upon clinically achievable concentrations if the clinical Cmax of the agent was known.
Compounds. The drugs and investigational agents: cirtuvivint (SM08502; NSC835563), CC-671 (NSC850746), vemurafenib (NSC761431), tapotoclax (NSC804041), sotorasib (NSC818433), adagrasib (NSC831453), MRTX-1133 (NSC836407), BAY2416964 (NSC825713), copanlisib (NSC816437), inavolisib (NSC800729), abemaciclib (NSC768073), osimertinib (NSC779217), entinostat (NSC756642), eltanexor (KPT-8602, NSC794443), venetoclax (NSC766270), ceralasertib (NSC777638), bortezomib (NSC756655), olaparib (NSC753686), talazoparib (NSC767125), alisertib (NSC759677), peposertib (NSC802822), gemcitabine (NSC613327), 5-fluorouracil (NSC19893), SN-38 (NSC673596), oxaliplatin (NSC266046), paclitaxel (NSC125973), and doxorubicin (NSC123127), were obtained from the National Cancer Institute (NCI) Developmental Therapeutics Program Chemical Repository. The FDA-approved anticancer drug set is available from the Developmental Therapeutics Program at https://dtp.cancer.gov/organization/dscb/obtaining/available plates.htm. […] The stock solutions were prepared in dimethyl sulfoxide (DMSO, Sigma-Aldrich, St. Louis, MO, cat. D2650), except for the platinum complexes which were prepared in saline (Quality Biological, Gaithersburg, MD, cat. 114-055-101), at 800-fold the tested concentration and stored at -70 degrees C prior to their use. All drugs and investigational agents were tested over a range starting from a high concentration at or near the clinical Cmax and decreasing in half-log increments. If the clinical Cmax for an agent had not been determined, the highest concentration tested was 10 microM.
Cell Culture. All cells were maintained in an incubator at 37 degrees C and 5% CO2 with 95% humidity. The PDC lines were cultured according to standard operating procedures established by the NCI PDMR. Briefly, all PDCs were thawed and cultured in Matrigel-coated flasks prepared with a working solution of 1X Ham's F-12 nutrient mix, without supplementation (Invitrogen, Waltham, MA, cat. 11765054), 100 U/mL penicillin-streptomycin (Invitrogen, cat. 15140122), and 2.5% Matrigel (Corning Inc., Corning, NY, cat. 354248) for the first three passages. The 947758-054-R-J2-PDC line was cultured in 6B/Colon 1A media, which includes advanced DMEM/F-12 (Thermo Fisher Scientific, cat. 12634028), 10 mM HEPES (Thermo Fisher Scientific, cat. 15630080), 1X GlutaMAX supplement (Thermo Fisher Scientific, cat. 35050061), 0.1 mg/mL primocin (InvivoGen, cat. ant-pm-2), 10% defined fetal bovine serum, heat inactivated (HyClone Laboratories Inc., cat. SH30070.03HI), 1.25 mM N-Acetyl-L-cysteine (Sigma-Aldrich, cat. A9165), 10 mM nicotinamide (Sigma-Aldrich, cat. N0636), 1X B-27 supplement (Thermo Fisher Scientific, cat. 17504044), 1X N-2 supplement (Thermo Fisher Scientific, cat. 17502048), and 10 microM Y-27632 dihydrochloride (Tocris Bioscience, cat. 1254). The 876862-298-R-J1-PDC was cultured in 6E media, which includes all 6B/Colon 1A media components plus 50% L-WRN conditioned media (ATCC, cat. CRL-3276), 50 ng/mL recombinant human EGF recombinant protein (hEGF; Thermo Fisher Scientific, cat. PHG0311), 10 ng/mL recombinant human fibroblast growth factor 10 (hGFG-10; PeproTech, cat. 100-26), 1 ng/mL recombinant human fibroblast growth factor 2 (hFGF-2; PeproTech, cat. 100-18B), and 1 µM prostaglandin E2 (PGE2; Tocris, cat. 2296). The 227483-062-R1-J1-PDC line was cultured in Panc media, containing all 6E components except hFGF-2, with the addition of 500 nM SB-431542 (Selleckchem, cat. S1067) and 10 nM gastrin (Tocris, cat. 3006). […]

[1] = second compound 0.0316 µM, first compound 0.0316 µM
[2] = second compound 0.0316 µM, first compound 0.1 µM
[3] = second compound 0.0316 µM, first compound 0.316 µM
[4] = second compound 0.0316 µM, first compound 1 µM
[5] = second compound 0.0316 µM, first compound 3.16 µM
[6] = second compound 0.0316 µM, first compound 10 µM
[7] = second compound 0.1 µM, first compound 0.0316 µM
[8] = second compound 0.1 µM, first compound 0.1 µM
[9] = second compound 0.1 µM, first compound 0.316 µM
[10] = second compound 0.1 µM, first compound 1 µM
[11] = second compound 0.1 µM, first compound 3.16 µM
[12] = second compound 0.1 µM, first compound 10 µM
[13] = second compound 0.316 µM, first compound 0.0316 µM
[14] = second compound 0.316 µM, first compound 0.1 µM
[15] = second compound 0.316 µM, first compound 0.316 µM
[16] = second compound 0.316 µM, first compound 1 µM
[17] = second compound 0.316 µM, first compound 3.16 µM
[18] = second compound 0.316 µM, first compound 10 µM
[19] = second compound 1 µM, first compound 0.0316 µM
[20] = second compound 1 µM, first compound 0.1 µM
[21] = second compound 1 µM, first compound 0.316 µM
[22] = second compound 1 µM, first compound 1 µM
[23] = second compound 1 µM, first compound 3.16 µM
[24] = second compound 1 µM, first compound 10 µM
[25] = second compound 3.16 µM, first compound 0.0316 µM
[26] = second compound 3.16 µM, first compound 0.1 µM
[27] = second compound 3.16 µM, first compound 0.316 µM
[28] = second compound 3.16 µM, first compound 1 µM
[29] = second compound 3.16 µM, first compound 3.16 µM
[30] = second compound 3.16 µM, first compound 10 µM
[31] = second compound 10 µM, first compound 0.0316 µM
[32] = second compound 10 µM, first compound 0.1 µM
[33] = second compound 10 µM, first compound 0.316 µM
[34] = second compound 10 µM, first compound 1 µM
[35] = second compound 10 µM, first compound 3.16 µM
[36] = second compound 10 µM, first compound 10 µM
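Note: spheroids exposed to the agents for 7 days before readout.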

## CCCS(=O)(=O)Nc1ccc(F)c(C(=O)c2c[nH]c3ncc(-c4ccc(Cl)cc4)cc23)c1F + CN1CCN(c2cc(C(=O)Nc3cc4cc(-c5cnn(C)c5)ccc4cn3)ccn2)CC1
Second compound 0.0316 µM
  IC50: > 10000 nM
Second compound 0.1 µM
  IC50: 9220 nM
Second compound 0.316 µM
  IC50: < 31.6 nM
Second compound 1 µM
  IC50: < 31.6 nM
Second compound 3.16 µM
  IC50: < 31.6 nM
Second compound 10 µM
  IC50: < 31.6 nM
[1]
  viability, T/C: 95.3%
[2]
  viability, T/C: 113%
[3]
  viability, T/C: 118%
[4]
  viability, T/C: 97.9%
[5]
  viability, T/C: 96.6%
[6]
  viability, T/C: 65.3%
[7]
  viability, T/C: 107%
[8]
  viability, T/C: 90.5%
[9]
  viability, T/C: 91.5%
[10]
  viability, T/C: 87.6%
[11]
  viability, T/C: 86.2%
[12]
  viability, T/C: 46.7%
[13]
  viability, T/C: 46.6%
[14]
  viability, T/C: 40.4%
[15]
  viability, T/C: 43.4%
[16]
  viability, T/C: 43.9%
[17]
  viability, T/C: 44.6%
[18]
  viability, T/C: 26.7%
[19]
  viability, T/C: 0.14%
[20]
  viability, T/C: 0.16%
[21]
  viability, T/C: 0.15%
[22]
  viability, T/C: 0.15%
[23]
  viability, T/C: 1.71%
[24]
  viability, T/C: 1.78%
[25]
  viability, T/C: 0.09%
[26]
  viability, T/C: 0.13%
[27]
  viability, T/C: 0.82%
[28]
  viability, T/C: 0.14%
[29]
  viability, T/C: 2.22%
[30]
  viability, T/C: 1.32%
[31]
  viability, T/C: 0.18%
[32]
  viability, T/C: 0.16%
[33]
  viability, T/C: 1.26%
[34]
  viability, T/C: 0.19%
[35]
  viability, T/C: 1.53%
[36]
  viability, T/C: 0.25%

## COC1C=CCC(C)C(C)S(=O)(=O)NC(=O)c2ccc3c(c2)N(CC2CCC21)CC1(CCCc2cc(Cl)ccc21)CO3 (centres undefined) + CN1CCN(c2cc(C(=O)Nc3cc4cc(-c5cnn(C)c5)ccc4cn3)ccn2)CC1
Second compound 0.0316 µM
  IC50: 5390 nM
Second compound 0.1 µM
  IC50: 3790 nM
Second compound 0.316 µM
  IC50: < 31.6 nM
Second compound 1 µM
  IC50: < 31.6 nM
Second compound 3.16 µM
  IC50: < 31.6 nM
Second compound 10 µM
  IC50: < 31.6 nM
[1]
  viability, T/C: 111%
[2]
  viability, T/C: 107%
[3]
  viability, T/C: 85.1%
[4]
  viability, T/C: 91.4%
[5]
  viability, T/C: 84.9%
[6]
  viability, T/C: 13.6%
[7]
  viability, T/C: 122%
[8]
  viability, T/C: 99.7%
[9]
  viability, T/C: 85.6%
[10]
  viability, T/C: 90.1%
[11]
  viability, T/C: 60.6%
[12]
  viability, T/C: 10.8%
[13]
  viability, T/C: 42.2%
[14]
  viability, T/C: 48%
[15]
  viability, T/C: 31.7%
[16]
  viability, T/C: 21.1%
[17]
  viability, T/C: 13.6%
[18]
  viability, T/C: 7.1%
[19]
  viability, T/C: 0.12%
[20]
  viability, T/C: 0.13%
[21]
  viability, T/C: 0.15%
[22]
  viability, T/C: 0.22%
[23]
  viability, T/C: 0.1%
[24]
  viability, T/C: 0.79%
[25]
  viability, T/C: 0.11%
[26]
  viability, T/C: 0.17%
[27]
  viability, T/C: 1.93%
[28]
  viability, T/C: 0.13%
[29]
  viability, T/C: 2.55%
[30]
  viability, T/C: 0.89%
[31]
  viability, T/C: 0.15%
[32]
  viability, T/C: 1.42%
[33]
  viability, T/C: 1.53%
[34]
  viability, T/C: 0.22%
[35]
  viability, T/C: 0.8%
[36]
  viability, T/C: 2.41%
